# Laboratory results from PMC12723384, “A S180F substitution in D-alanine aminotransferase confers resistance to β-chloro-D-alanine in Staphylococcus aureus” (The Journal of Biological Chemistry, 2025).
# Experiments:
# Format in all cases: biochemical
# [1] = molecular target: T1, D-alanine aminotransferase (Dat) (Staphylococcus aureus, UniProt A0A0H2XHU6); test: lactate dehydrogenase-coupled assay of pyruvate production from D-alanine, A340
# T1 construct: recombinant HIS-tagged wild-type Dat from JE2, expressed from pET28b in E. coli
# T1 sequence (A0A0H2XHU6 1-282): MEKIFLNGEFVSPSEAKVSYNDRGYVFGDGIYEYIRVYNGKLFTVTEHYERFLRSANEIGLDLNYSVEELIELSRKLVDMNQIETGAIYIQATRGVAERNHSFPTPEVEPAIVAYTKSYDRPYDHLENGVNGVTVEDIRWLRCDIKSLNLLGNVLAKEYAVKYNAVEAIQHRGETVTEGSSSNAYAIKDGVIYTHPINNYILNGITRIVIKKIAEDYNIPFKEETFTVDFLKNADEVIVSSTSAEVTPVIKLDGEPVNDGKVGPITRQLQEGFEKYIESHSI
# [2] = molecular target: T2, D-alanine aminotransferase (Dat-S180F) (Staphylococcus aureus, UniProt A0A0H2XHU6, S180F); test: as above
# T2 construct: recombinant HIS-tagged Dat-S180F from BCDA1, expressed from pET28b in E. coli
# T2 sequence (A0A0H2XHU6 1-282 S180F): T1 sequence (A0A0H2XHU6 1-282)
# [3] = molecular target: T3, D-alanine aminotransferase (Dat) (Staphylococcus aureus, UniProt Q5HF24); test: lactate dehydrogenase-coupled assay, turnover of […] D-alanine to pyruvate
# T3 construct: recombinant HIS-tagged wild-type Dat
Structure (SMILES),IC50 [1] [µM],IC50 [2] [µM],"lactate dehydrogenase-coupled assay, turnover of 25 mM D-alanine to pyruvate [3]"
"N[C@H](CCl)C(=O)O [BCDA, β-chloro-D-alanine]",96.8 ± 12,34 ± 4.7,–
C[C@@H](N)C(=O)O [D-alanine],–,–,comparison of wild-type Dat (green) and Dat-S180F (violet) enzymatic production of pyruvate from D-alanine
